Experimental data taken from a melting point compilation (Tetko et al.; mined from patent text by program, amines drawn as free bases though some values may be those of a salt).

**Q.** With `COc1ccccc1-n1c(=O)[nH]c2c(C(N)=O)nc(N[C@H]3CC[C@H](OC(N)=O)CC3)nc21` as the compound, how does the melting point read?
**A.** 157 to 160 °C

**Q.** With `CCc1ccccc1-c1cccc(-n2cnc(-c3nc(C)no3)c2)c1` as the compound, how does the melting point read?
**A.** 150 to 156 °C

**Q.** With `FC(F)(F)c1ccc(-c2cc(Oc3ccc4cccnc4c3)ncn2)c(OCCN2CCOCC2)c1` as the compound, how does the melting point read?
**A.** 132 to 133 °C

**Q.** Which melting point does the source give for `CCN1c2ncc(CCc3ccccc3)cc2C(=O)N(C)c2c1ncc(C)c2C` here?
**A.** 187 to 188 °C

**Q.** With `COc1ccc(-c2c(C)c(NC(=O)CC(C)(C)C)c(C)c3c2OCC3c2ccc(C(C)C)cc2)cc1` (centres undefined) as the compound, how does the melting point read?
**A.** 129 to 131 °C

**Q.** For `C=Cc1ccc(S(=O)(=O)Nc2ncnc(Cl)c2Cc2c(OC)cccc2OC)cc1`, which melting point is on record?
**A.** 197 to 198 °C

**Q.** Which melting point does the source give for `COc1nc(C)cc(C)c1C(=O)O` here?
**A.** 210 to 215 °C

**Q.** With `CC1=C(NC=O)C(C)C(C)(C(C)C)C2=C1CC(C)(CI)O2` (centres undefined) as the compound, how does the melting point read?
**A.** 145 to 147 °C

**Q.** Which melting point does the source give for `Cc1c(-c2ccccc2)oc2c(C=O)cccc2c1=O` here?
**A.** 124 to 126 °C

**Q.** With `Cc1ccc(S(=O)(=O)CNc2nc(C)cc(C)n2)cc1` as the compound, how does the melting point read?
**A.** 191 to 194 °C

**Q.** With `CC(C)N(C(=O)CN1C(=O)C(C)(CC(=O)Nc2ccccc2)C(=O)N(c2ccc(Cl)cc2)c2ccccc21)c1ccccc1` (centres undefined) as the compound, how does the melting point read?
**A.** 170 to 176 °C

**Q.** With `CCc1cnn(CC(=O)O)c1OCCCc1cn(-c2ccc(C(F)(F)F)cn2)nc1C(CC)CC` as the compound, how does the melting point read?
**A.** 124 to 125 °C

**Q.** For `COc1ccc(N=Nc2ccc(O)c(C(=O)Nc3ccc4[nH]cnc4c3)c2)cc1`, which melting point is on record?
**A.** 274 °C

**Q.** For `Nc1nc(=O)c2ncn(C3OC4COP(=O)(O)OC4C3O)c2[nH]1` (centres undefined), which melting point is on record?
**A.** 91.6 to 93.7 °C

**Q.** With `Cc1nc(N2C[C@H](C)N(Cc3ccc(F)cc3)C2=O)sc1C(=O)O` as the compound, how does the melting point read?
**A.** 208 to 210 °C

**Q.** Which melting point does the source give for `Fc1ccc(-c2nc[nH]c2-c2ccc(F)cc2)cc1` here?
**A.** 234 to 236 °C

**Q.** With `CC(C)n1c(=O)c(=O)[nH]c2ccccc21` as the compound, how does the melting point read?
**A.** 227 to 228 °C

**Q.** For `Cn1c([N+](=O)[O-])cnc1-c1nc(C=O)cs1`, which melting point is on record?
**A.** 180 to 182 °C

**Q.** For `CCCC1=C(C#N)C(c2ccccc2Cl)c2c[nH]nc2N1` (centres undefined), which melting point is on record?
**A.** 248 °C

**Q.** For `Cc1cc(O)nc(CCCCOc2nccc(NC(N)=NCC(F)(F)F)n2)n1`, which melting point is on record?
**A.** 191 to 193 °C

**Q.** Which melting point does the source give for `CC1(C)CCc2c(N3CCCC3)nc3sc4c(NCc5ccccn5)ncnc4c3c2C1` here?
**A.** 212 to 213 °C

**Q.** For `COc1cc(C(C)C)c2c(c1)S(=O)(=O)N(COC(=O)c1c(C)ccnc1C)C2=O`, which melting point is on record?
**A.** 132 to 134 °C

**Q.** Which melting point does the source give for `Cc1ccc(C)c(-c2cc(CO)ccc2CO)c1` here?
**A.** 145 to 148 °C

**Q.** With `O=C(O)c1ccc2c3c(ccc(C(O)=NC4CCCCC4)c13)CC2` as the compound, how does the melting point read?
**A.** 264 to 265 °C

**Q.** With `CC1(C)C(=O)NC(=O)c2c1ccc(N)c2[N+](=O)[O-]` as the compound, how does the melting point read?
**A.** 259 to 263 °C

**Q.** Which melting point does the source give for `CCC(=O)n1c(=O)n(-c2ccc([N+](=O)[O-])cc2)c(=O)n1C(=O)CC` here?
**A.** 140 to 142 °C

**Q.** With `CCCCCCCCCCOc1cc2oc3c(C(=O)OCC)cccc3c(=O)c2cc1CCC(=O)OCC` as the compound, how does the melting point read?
**A.** 61 to 63 °C

**Q.** For `CCC(=O)OCCc1ccc2c(c1)C(=O)c1ccccc1CO2`, which melting point is on record?
**A.** 71.5 to 73.5 °C

**Q.** Which melting point does the source give for `Cc1cc(C)c(C2CN(c3cc4[nH]cc(C(=O)O)c(=O)c4cc3F)CCN2)o1` (centres undefined) here?
**A.** 230 to 232 °C

**Q.** With `COC(=O)C(=C(/C)c1ccc(OC2CCCC2)c(OC)c1)/C(=C\c1ccccc1)C(N)=O` as the compound, how does the melting point read?
**A.** 133 to 134 °C

**Q.** For `Cn1nc(C2CCN(C#N)CC2)c2ccc(F)cc21`, which melting point is on record?
**A.** 133 to 136 °C

**Q.** For `O=Cc1c(Br)nc(-c2ccccc2)n1Cc1cc2c(cc1Cl)OCO2`, which melting point is on record?
**A.** 148 °C

**Q.** With `CNC(=NS(C)(=O)=O)SC` as the compound, how does the melting point read?
**A.** 88 to 91 °C

**Q.** For `COc1cc2c(c3c1OC(C)(C)C3)C(c1cccc(NC(=O)c3ccc(CP(=O)(O)O)cc3)c1)=NC(C)(C)C2`, which melting point is on record?
**A.** 237 to 241 °C

**Q.** Which melting point does the source give for `O=C1NCc2c(O)nc3ccccc3c21` here?
**A.** 245 to 246 °C

**Q.** Which melting point does the source give for `COc1ccccc1N1CCN(C(=O)OC(C)(C)C)CC1` here?
**A.** 70 to 71 °C

**Q.** For `Cc1c(O)c(C)c(CS)c(C)c1CS`, which melting point is on record?
**A.** 159 °C

**Q.** For `CON(C)C(=O)c1cc(O)cc2cc(-c3ccc(O)cc3)oc12`, which melting point is on record?
**A.** 125 to 127 °C

**Q.** Which melting point does the source give for `O=c1[nH]c2cc(Cl)cc(OCCNCc3ccccc3)c2[nH]1` here?
**A.** 192 to 193 °C

**Q.** With `NS(=O)(=O)c1cc(C(=O)O)cc([N+](=O)[O-])c1OCC(F)(F)F` as the compound, how does the melting point read?
**A.** 195 to 197 °C

**Q.** For `CC(=O)NC(Cc1ccc(Cl)c(Cl)c1)C(=O)CCc1cc(C(F)(F)F)cc(C(F)(F)F)c1` (centres undefined), which melting point is on record?
**A.** 124 to 126 °C

**Q.** Which melting point does the source give for `CC(C)(C)C(=O)Nc1ccc2oc3c(c2c1)CCC3` here?
**A.** 188 to 190 °C

**Q.** Which melting point does the source give for `CN1CC(CO)CC2(O)c3cccc4[nH]cc(c34)CC12` (centres undefined) here?
**A.** 175 to 179 °C

**Q.** Which melting point does the source give for `CCCc1c(OCCCSc2ccc(C(=O)CCC(=O)O)c(O)c2)ccc(C(C)=O)c1O` here?
**A.** 140 °C

**Q.** Which melting point does the source give for `COc1cc(NC(=O)c2cccc(CSc3cnccn3)c2)cc(OC)c1OC` here?
**A.** 112 to 119 °C

**Q.** For `CCCCCCCCCCOCCCCCCCSCCCO`, which melting point is on record?
**A.** 28 to 32 °C

**Q.** Which melting point does the source give for `CCOCc1nc2c(N)nc3ccccc3c2n1Cc1ccccc1` here?
**A.** 204 to 205 °C

**Q.** Which melting point does the source give for `COc1cc(C)c2cc(C(C)O)ccc2c1C` (centres undefined) here?
**A.** 78 °C

**Q.** With `O=C(CCl)NCC(O)(c1ccccc1)c1ccccc1` as the compound, how does the melting point read?
**A.** 178 to 180 °C
